The test concerns mTOR. Kind of test: Western blot for mTOR inhibition (S6K1 phosphorylation). As to conditions: immunoblot. It is filed as cell-based. As to the method:
Screening of autophagy enhancer. […] Luciferase assay. Firefly and Renilla luciferase assays were conducted using the Dual-Luciferase Reporter Assay System (Promega) according to the manufacturer's recommendation. In brief, cells were lysed in 1× lysis buffer and subjected to a single round of freezing/thawing. Firefly luciferase was determined after mixing 5 μl of lysate with 25 μl of Luciferase Assay Reagent II. Renilla luciferase was then determined after further addition of 20 ul of Stop&Glo Reagent. Cell culture and media and drugs treatment. […] Cytotoxicity was determined by the measurement of LDH release in cell culture media using the LDH kit (Roche), according to the protocol from the manufacturer. […] Imaging and image quantification. […] Formation of acidic vesicular organelles was quantitated by staining the cells with acridine orange (Invitrogen, 5 ug/ml, 10 min). […] Cells or tissues were solubilized in lysis buffer supplemented with protease and phosphatase inhibitors and protein concentration was measured by the Bradford method. Ten to 30 micrograms were loaded on 4-12% Bis-Tris gel (NUPAGE, Invitrogen) or 8-15% SDS-PAGE, transferred to PVDF membranes and analyzed by western blot using the ECL method (Pierce). […] Protein levels were quantified by using ImageJ software analysis. […]
For orientation: In western blotting, separated proteins are transferred to a membrane and probed.

We go through two compounds from patent US10881642B2, “Autophagy enhancer and use thereof” (Industry-Academic Cooperation Foundation, Yonsei University, priority 2016, dated 2021).

As for `COc1oc(-c2ccccc2Cl)nc1S(=O)(=O)c1ccccc1` [MSL-7, 2-(2-chlorophenyl)-5-methoxy-4-(phenylsulfonyl) oxazole], the mTOR inhibition entry is given as “without cellular toxicity or mTOR inhibition”.

`CSc1oc(-c2ccccc2)nc1S(=O)(=O)c1ccc(F)cc1` [MSL]: the mTOR inhibition entry is listed as “does not involve mTOR inhibition”.
